{"source": "patent US20220273806A1", "about": "“USE OF FLUORINE-CONTAINING COMPOUND-MODIFIED CATIONIC POLYMER AS DRUG CARRIER AND PREPARATION METHOD” (SOOCHOW UNIVERSITY, priority 2020, published 2022)", "key": {"[1]": {"system": "C57BL/6 mice", "details": "mouse, in vivo", "method": "Experimental designers used adriamycin, epirubicin (THP) and fluorescent dye rhodamine B as a bladder perfusion drug respectively to mix with chitosan (1% acetic acid aqueous solution) to prepare chitosan bladder perfusion drug systems. After 1 h of bladder perfusion, the bladder tissue was removed, frozen sections were prepared, the fluorescence intensity of the drug was analyzed with a confocal fluorescence microscope, and the distribution of the drug in the bladder tissue was investigated. […] In order to further investigate the biological safety of chitosan as a drug carrier for perfusion, the designers of the project perfused the mouse bladder with a 15 mg/ml chitosan aqueous solution, stopped the perfusion after 1 h, continued to raise the mice under normal feeding conditions, and recorded the mice weight. […] After dissection, the bladder of the mice in the experimental group was compared with that of the mice in the control group.\nHealthy C57BL/6 mice aged 10-12 weeks were divided into three groups, 8 mice/each group. The experimental group was perfused with 15 mg/ml fluorinated chitosan or 1% chitosan in aqueous acetic acid solution for 1 h, once a week for three weeks, and the blank control group was perfused with equal volume of double distilled water. […]"}, "[2]": {"system": "abdomen skin of mice", "details": "1 mg/mL, first three hours", "protocol": "In vitro diffusion cell construction: the abdomen skin of mice was removed, the fat layer was shaved off, and the skin was fixed on a diffusion cell. 7.5 mL PBS was added to the diffusion cell below the skin, and 0.75 mL perfluoroheptanoic acid-modified chitosan-tranexamic acid and the same concentration of pure tranexamic acid solution were respectively added to the diffusion cell above the skin.\nMeasurement of tranexamic acid penetration rate: 500 μL of PBS was removed from the bottom of the diffusion cell at 0, 1, and 3 h and the same volume of PBS was supplemented. The content of tranexamic acid was detected under the following HPLC conditions: methanol and 0.05 mol/L KH2PO4-0. 2% H3PO4 solution (volume ratio 5:95) as mobile phase, flow rate 1.0 mL/min, and detection wavelength 210 nm, and the cumulative penetration was calculated."}, "[3]": {"system": "Balb/c mice", "description": "Balb/c mice at week 6 in the hair prohibition period were selected, and on the day before treatment, the mice in the perfluoroheptanoic acid-modified chitosan-metformin group, free metformin group, and blank control group were removed of the equivalent hair on the back and photographed as shown in the figure. Each mouse was uniformly sprayed with the drug according to its own treatment method, and the drug was given once every two days, 100 microliters each time."}, "[4]": {"system": "mouse eye", "details": "in vivo", "protocol": "In order to evaluate the penetrating ability for the cornea, the cornea was subjected to immunofluorescence staining at different time points to observe the penetrating ability. Samples were taken 5 min, 15 min, 30 min, and 60 min after the drug with perfluoroheptanoic acid-modified chitosan was applied. Frozen sections were prepared, and the nuclei of the sections were stained and observed under a confocal microscope as shown in FIG. 4-7. Herein, the red is the fluorescence of the protein label, and the blue is the nucleus of the eye tissue."}}, "note": "Like-named read-outs stand apart in the source and are kept apart here."}
{"compound": "chitosan", "values": [{"measurement": "bladder HE staining and CD45 and Ki67 immunofluorescence", "setting": "[1]", "value": "severe inflammatory stress and congestion and edema"}, {"measurement": "bladder HE staining and CD45 and Ki67 immunofluorescence, mucosal and epithelial damage", "setting": "[1]", "value": "severe inflammatory stress and congestion and edema"}]}
{"compound": "NC[C@H]1CC[C@H](C(=O)O)CC1", "note": "[pure tranexamic acid, tranexamic acid]", "values": [{"measurement": "cumulative penetration of tranexamic acid", "setting": "[2]", "value": "substantially does not penetrate"}]}
{"compound": "CN(C)C(=N)N=C(N)N", "note": "[Metformin, metformin]", "values": [{"measurement": "hair growth on the back", "setting": "[3]; Day 0", "value": "No hair"}, {"measurement": "hair growth on the back", "setting": "[3]; Day 11", "value": "No hair"}, {"measurement": "hair growth on the back", "setting": "[3]; Day 13", "value": "No hair"}, {"measurement": "hair growth on the back", "setting": "[3]; Day 17", "value": "No hair"}]}
{"compound": "free protein: bovine serum albumin labeled Cy5.5 without fluorine-containing chitosan", "values": [{"measurement": "penetration into the corneal epithelial cells", "setting": "[4]", "value": "substantially does not enter"}]}
